Source: US20120065267A1, “COMPOSITIONS INCLUDING 3,5-L-T2 AND METHODS OF USE THEREOF” (priority 2010, published 2012)
“And” between values parts separate entries of the source, which are not always exact repeats. Identical values can stand only once.

Columns and labels:
[1] = Body weight of mice on Western Diet given low or high dose T2; assay type: in vivo
Experimental: This corresponds to a dosage for an 80 kg human of about 20-200 mg/day, or a low dose of about 0.2-0.3 mg/kg of body weight to a high dose of about 2-3 mg/kg of body weight. One will appreciate, however, that some subjects (e.g., subjects having very low LDL receptor function) may receive higher doses, depending on need. likewise, some subjects may receive lower doses, which again depends on need. Mice in the study were fed a standard lab chow referred to as the “Western Diet.” The overall level of fat and the saturated nature of the fat are representative diets typical in the industrialized west that are linked to risk of cardiovascular disease in humans. The formula is used primarily with genetically manipulated rodent models that are susceptible to high cholesterol and cardiovascular disease. The diet may also be useful in diet-induced obesity, diabetes, and metabolic syndrome models. High cholesterol, obesity, and diabetes are each associated increased risk for cardiovascular disease. The composition of the Western Diet is shown below. C57 is a wild-type strain, LDLr+/− are a strain carrying one functional copy of the LDLr gene, and the LDLr0 animals are total LDLr knockouts. The LDLr gene encodes for the LDL receptor protein, which is responsible for scavenging LDL with bound cholesterol from the blood and transporting it into cells. Both heterozygous and homozygous LDLr knockout animals develop very high serum cholesterol levels and are considered to be a good model for heterozygous and homozygous familial hypercholesterolemia in humans. […] LDLr knockout animals have zero LDL receptor function.

[2] = tested on: growth hormone gene expression; details: cited from earlier work

N[C@@H](Cc1cc(I)c(Oc2ccc(O)cc2)c(I)c1)C(=O)O [T2, (2S)-2-amino-3-[4-(4-hydroxyphenoxy)-3,5-diiodophenyl]propanoic acid]
Body weight (Ave) ([1]; C57 mice, High Dose T2 2.5 mg/kg daily oral, Day 1, group average): 28.1 g
Body weight ([1]; C57 mice, High Dose T2 2.5 mg/kg daily oral, Day 1, individual animal, 2.5 mg/kg): 29.6 (2×) and 24.9 and 29.8 and 26.7
Body weight (Ave) ([1]; C57 mice, High Dose T2 2.5 mg/kg daily oral, Day 2, group average): 28.4 g
Body weight ([1]; C57 mice, High Dose T2 2.5 mg/kg daily oral, Day 2, individual animal, 2.5 mg/kg, in g (unit assumed)): 29.5 and 30.1 and 25.8 and 29.7 and 27.1
Body weight (Ave) ([1]; C57 mice, High Dose T2 2.5 mg/kg daily oral, Day 3, group average): 28.4 g
Body weight ([1]; C57 mice, High Dose T2 2.5 mg/kg daily oral, Day 3, individual animal, 2.5 mg/kg, in g (unit assumed)): 29.8 and 30.0 and 25.1 and 29.9 and 27.2
Body weight (Ave) ([1]; C57 mice, High Dose T2 2.5 mg/kg daily oral, Day 4, group average): 27.4 g
Body weight ([1]; C57 mice, High Dose T2 2.5 mg/kg daily oral, Day 4, individual animal, 2.5 mg/kg, in g (unit assumed)): 29.1 and 28.7 and 23.4 and 28.8 and 27
Body weight (Ave) ([1]; C57 mice, High Dose T2 2.5 mg/kg daily oral, Day 5, group average): 27.7 g
Body weight ([1]; C57 mice, High Dose T2 2.5 mg/kg daily oral, Day 5, individual animal, 2.5 mg/kg, in g (unit assumed)): 29.7 and 29.1 and 24.1 and 28.5 and 27.3
Body weight (Ave) ([1]; C57 mice, Low Dose T2 0.25 mg/kg daily oral, Day 1, group average): 25.2 g
Body weight ([1]; C57 mice, Low Dose T2 0.25 mg/kg daily oral, Day 1, individual animal, 0.25 mg/kg, in g (unit assumed)): 26.5 and 27.0 and 23.0 and 26.4 and 24.0 and 24.1
Body weight (Ave) ([1]; C57 mice, Low Dose T2 0.25 mg/kg daily oral, Day 2, group average): 26.1 g
Body weight ([1]; C57 mice, Low Dose T2 0.25 mg/kg daily oral, Day 2, individual animal, 0.25 mg/kg, in g (unit assumed)): 28.2 and 27.7 and 24.1 and 26.3 and 25.5 and 24.9
Body weight (Ave) ([1]; C57 mice, Low Dose T2 0.25 mg/kg daily oral, Day 3, group average): 26.5 g
Body weight ([1]; C57 mice, Low Dose T2 0.25 mg/kg daily oral, Day 3, individual animal, 0.25 mg/kg, in g (unit assumed)): 28.3 and 27.8 and 23.3 and 27.9 and 26.2 and 25.6
Body weight (Ave) ([1]; C57 mice, Low Dose T2 0.25 mg/kg daily oral, Day 4, group average): 25.8 g
Body weight ([1]; C57 mice, Low Dose T2 0.25 mg/kg daily oral, Day 4, individual animal, 0.25 mg/kg, in g (unit assumed)): 26.8 and 27.2 and 23.7 and 26.7 and 25.1 and 25.4
Body weight (Ave) ([1]; C57 mice, Low Dose T2 0.25 mg/kg daily oral, Day 5, group average): 26.8 g
Body weight ([1]; C57 mice, Low Dose T2 0.25 mg/kg daily oral, Day 5, individual animal, 0.25 mg/kg, in g (unit assumed)): 27.3 and 28.3 and 24.5 and 27.5 and 26.4
Body weight (Ave) ([1]; C57 mice, Low Dose T2 0.25 mg/kg daily oral, Day 6, group average): 27.5 g
Body weight ([1]; C57 mice, Low Dose T2 0.25 mg/kg daily oral, Day 6, individual animal, 0.25 mg/kg, in g (unit assumed)): 28.1 and 29.9 and 24.8 and 28.7 and 26.1
Body weight (Ave) ([1]; C57 mice, Low Dose T2 0.25 mg/kg daily oral, Day 7, group average): 28.3 g
Body weight ([1]; C57 mice, Low Dose T2 0.25 mg/kg daily oral, Day 7, individual animal, 0.25 mg/kg, in g (unit assumed)): 29.5 and 30.7 and 26.2 and 29.0 and 26.1
Body weight (Ave) ([1]; LDLr0 mice, High Dose T2 2.5 mg/kg daily oral, Day 1, group average): 25.7 g
Body weight ([1]; LDLr0 mice, High Dose T2 2.5 mg/kg daily oral, Day 1, individual animal, 2.5 mg/kg, in g (unit assumed)): 23.9 and 27.4
Body weight (Ave) ([1]; LDLr0 mice, High Dose T2 2.5 mg/kg daily oral, Day 2, group average): 24 g
Body weight ([1]; LDLr0 mice, High Dose T2 2.5 mg/kg daily oral, Day 2, individual animal, 2.5 mg/kg, in g (unit assumed)): 23.1 and 24.8
Body weight (Ave) ([1]; LDLr0 mice, High Dose T2 2.5 mg/kg daily oral, Day 3, group average): 23.9 g
Body weight ([1]; LDLr0 mice, High Dose T2 2.5 mg/kg daily oral, Day 3, individual animal, 2.5 mg/kg, in g (unit assumed)): 22.8 and 24.9
Body weight (Ave) ([1]; LDLr0 mice, High Dose T2 2.5 mg/kg daily oral, Day 4, group average): 24.2 g
Body weight ([1]; LDLr0 mice, High Dose T2 2.5 mg/kg daily oral, Day 4, individual animal, 2.5 mg/kg, in g (unit assumed)): 23.5 and 24.8
Body weight (Ave) ([1]; LDLr0 mice, High Dose T2 2.5 mg/kg daily oral, Day 5, group average): 24.2 g
Body weight ([1]; LDLr0 mice, High Dose T2 2.5 mg/kg daily oral, Day 5, individual animal, 2.5 mg/kg, in g (unit assumed)): 23.1 and 25.3
Body weight (Ave) ([1]; LDLr0 mice, Low Dose T2 0.25 mg/kg daily oral, Day 1, group average): 22.3 g
Body weight ([1]; LDLr0 mice, Low Dose T2 0.25 mg/kg daily oral, Day 1, individual animal, 0.25 mg/kg, in g (unit assumed)): 23.1 and 21.1 and 22.7 and 22.1
Body weight (Ave) ([1]; LDLr0 mice, Low Dose T2 0.25 mg/kg daily oral, Day 2, group average): 22.8 g
Body weight ([1]; LDLr0 mice, Low Dose T2 0.25 mg/kg daily oral, Day 2, individual animal, 0.25 mg/kg, in g (unit assumed)): 21.6 and 23.6 and 23.2
Body weight (Ave) ([1]; LDLr0 mice, Low Dose T2 0.25 mg/kg daily oral, Day 3, group average): 23.4 g
Body weight ([1]; LDLr0 mice, Low Dose T2 0.25 mg/kg daily oral, Day 3, individual animal, 0.25 mg/kg, in g (unit assumed)): 22.3 and 24.4 and 23.5
Body weight (Ave) ([1]; LDLr0 mice, Low Dose T2 0.25 mg/kg daily oral, Day 4, group average): 22.3 g
Body weight ([1]; LDLr0 mice, Low Dose T2 0.25 mg/kg daily oral, Day 4, individual animal, 0.25 mg/kg, in g (unit assumed)): 21.2 and 22.9 and 22.8
Body weight (Ave) ([1]; LDLr0 mice, Low Dose T2 0.25 mg/kg daily oral, Day 5, group average): 22.4 g
Body weight ([1]; LDLr0 mice, Low Dose T2 0.25 mg/kg daily oral, Day 5, individual animal, 0.25 mg/kg, in g (unit assumed)): 22.0 and 22.2 and 23.0
Body weight (Ave) ([1]; LDLr0 mice, Low Dose T2 0.25 mg/kg daily oral, Day 6, group average): 22.3 g
Body weight ([1]; LDLr0 mice, Low Dose T2 0.25 mg/kg daily oral, Day 6, individual animal, 0.25 mg/kg, in g (unit assumed)): 22.1 and 21.7 and 23.1
Body weight (Ave) ([1]; LDLr0 mice, Low Dose T2 0.25 mg/kg daily oral, Day 7, group average): 22.2 g
Body weight ([1]; LDLr0 mice, Low Dose T2 0.25 mg/kg daily oral, Day 7, individual animal, 0.25 mg/kg, in g (unit assumed)): 22.4 and 20.6 and 23.6
Body weight (Ave) ([1]; LDLr+/− mice, High Dose T2 2.5 mg/kg daily oral, Day 1, group average): 30.8 g
Body weight ([1]; LDLr+/− mice, High Dose T2 2.5 mg/kg daily oral, Day 1, individual animal, 2.5 mg/kg, in g (unit assumed)): 32.8 and 31.8 and 29.8 and 31.4 and 29.2 and 29.6
Body weight (Ave) ([1]; LDLr+/− mice, High Dose T2 2.5 mg/kg daily oral, Day 2, group average): 31.3 g
Body weight ([1]; LDLr+/− mice, High Dose T2 2.5 mg/kg daily oral, Day 2, individual animal, 2.5 mg/kg, in g (unit assumed)): 33.3 and 34.5 and 29.8 and 31.0 and 29.1 and 29.9
Body weight (Ave) ([1]; LDLr+/− mice, High Dose T2 2.5 mg/kg daily oral, Day 3, group average): 31.1 g
Body weight ([1]; LDLr+/− mice, High Dose T2 2.5 mg/kg daily oral, Day 3, individual animal, 2.5 mg/kg): 33.1 and 33.9 and 29.8 (2×) and 30.9 and 29.3
Body weight (Ave) ([1]; LDLr+/− mice, High Dose T2 2.5 mg/kg daily oral, Day 4, group average): 29.8 g
Body weight ([1]; LDLr+/− mice, High Dose T2 2.5 mg/kg daily oral, Day 4, individual animal, 2.5 mg/kg, in g (unit assumed)): 32.1 and 33.0 and 29.0 and 30.1 and 27.9 and 26.8
Body weight (Ave) ([1]; LDLr+/− mice, High Dose T2 2.5 mg/kg daily oral, Day 5, group average): 29.7 g
Body weight ([1]; LDLr+/− mice, High Dose T2 2.5 mg/kg daily oral, Day 5, individual animal, 2.5 mg/kg, in g (unit assumed)): 32.3 and 32.9 and 28.9 and 30.4 and 27.6 and 26.3
Body weight (Ave) ([1]; LDLr+/− mice, Low Dose T2 0.25 mg/kg daily oral, Day 1, group average): 26.7 g
Body weight ([1]; LDLr+/− mice, Low Dose T2 0.25 mg/kg daily oral, Day 1, individual animal, 0.25 mg/kg, in g (unit assumed)): 28.2 and 29.0 and 24.7 and 26.4 and 25.0 and 26.6
Body weight (Ave) ([1]; LDLr+/− mice, Low Dose T2 0.25 mg/kg daily oral, Day 2, group average): 28.1 g
Body weight ([1]; LDLr+/− mice, Low Dose T2 0.25 mg/kg daily oral, Day 2, individual animal, 0.25 mg/kg, in g (unit assumed)): 29.4 and 30.6 and 26.6 and 27.8 and 26.1 and 28.2
Body weight (Ave) ([1]; LDLr+/− mice, Low Dose T2 0.25 mg/kg daily oral, Day 3, group average): 28.6 g
Body weight ([1]; LDLr+/− mice, Low Dose T2 0.25 mg/kg daily oral, Day 3, individual animal, 0.25 mg/kg, in g (unit assumed)): 29.7 and 31.4 and 27.2 and 28.1 and 26.3 and 28.8
Body weight (Ave) ([1]; LDLr+/− mice, Low Dose T2 0.25 mg/kg daily oral, Day 4, group average): 27.6 g
Body weight ([1]; LDLr+/− mice, Low Dose T2 0.25 mg/kg daily oral, Day 4, individual animal, 0.25 mg/kg, in g (unit assumed)): 28.8 and 30.3 and 26.2 and 27.4 and 25.8 and 27.3
Body weight (Ave) ([1]; LDLr+/− mice, Low Dose T2 0.25 mg/kg daily oral, Day 5, group average): 28.5 g
Body weight ([1]; LDLr+/− mice, Low Dose T2 0.25 mg/kg daily oral, Day 5, individual animal, 0.25 mg/kg, in g (unit assumed)): 29.5 and 31.3 and 27.3 and 28.4 and 26.6 and 27.9
Body weight (Ave) ([1]; LDLr+/− mice, Low Dose T2 0.25 mg/kg daily oral, Day 6, group average): 29.2 g
Body weight ([1]; LDLr+/− mice, Low Dose T2 0.25 mg/kg daily oral, Day 6, individual animal, 0.25 mg/kg, in g (unit assumed)): 30.7 and 32.4 and 28.5 and 29.1 and 26.7 and 27.9
Body weight (Ave) ([1]; LDLr+/− mice, Low Dose T2 0.25 mg/kg daily oral, Day 7, group average): 30 g
Body weight ([1]; LDLr+/− mice, Low Dose T2 0.25 mg/kg daily oral, Day 7, individual animal, 0.25 mg/kg): 31.0 and 32.7 and 29.6 (2×) and 28.2 and 29.0
effect on weight gain ([1]; low and high dose T2, all genotypes): did not affect
potency relative to T3 in increasing growth hormone gene expression [2]: 1/100
